Measurements reported in patent US8747740B2, “Process and apparatus for generating haloamine biocide” (Hercules Incorporated, priority 2007, dated 2014).

Experiment: Stability of chloramine in aqueous solution
Type: physicochemical
Details: pH of about 10 to about 11; partially decomposes at higher concentrations or lower pH

NCl [chloramine, Monochloramine]
concentration up to which chloramine is stable: up to 1,000 ppm
